Measured values from PMC4775225, “Bromodomain inhibition of the transcriptional coactivators CBP/EP300 as a therapeutic strategy to target the IRF4 network in multiple myeloma” (eLife, 2016).

Legend:
[1] = target: T1, CBP bromodomain and histone H3.3 (Homo sapiens, UniProt Q92793); test: NanoBRET, CBP bromodomain/histone H3.3 in HEK293 cells; type: cell-based; conditions: 293 cells, CBP bromodomain and histone H3.3; n = 3 technical replicates ± SEM
T1 construct: NanoBRET with the isolated CBP bromodomain and histone H3.3 in 293 cells; host or cells: HEK293
T1 sequence (Q92793 1085-1192 limits assumed): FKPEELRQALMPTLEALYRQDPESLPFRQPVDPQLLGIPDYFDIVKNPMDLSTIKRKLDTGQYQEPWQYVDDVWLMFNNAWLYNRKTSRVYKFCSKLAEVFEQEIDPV
Description: NanoBRET was carried out using the NanoBRET Protein:Protein Interaction System (Promega, Inc.; Madison, WI) according to the manufacturer’s instructions. Briefly, HEK293 cells were transiently co-transfected with a vector for histone H3.3-HaloTag and a NanoLuc tagged CBP bromodomain expression construct. Transfected cells were plated in 96 -well plates in the presence or absence of ligand, then treated with dose titrations of indicated compounds. Readings were performed on an Envision Plate Reader (Perkin Elmer, Inc.; Waltham, MA) and BRET readings were calculated by dividing the acceptor emission value (600 nm) by the donor emission value (460/50 nm).

[2] = target: T2, first bromodomain of BRD4 (BRD4-BD1) (Homo sapiens, UniProt O60885); test: AlphaLISA, acetylated peptide binding to BRD4-BD1
T2 construct: the first bromodomain of BRD4 (BRD4-BD1)
Description: Compound at varying concentrations were dispensed into 384 well Proxiplates (Perkin Elmer) using Echo technology (Labcyte, Inc.; Sunnyvale, CA). For CBP assays, 0.5 μM His-Flag-tagged CBP bromodomain (amino acids 1082–1197) was incubated with 0.003 μM H4-TetraAc-biotin for 20 min at room temperature in 1x reaction buffer (50 mM HEPES pH 7.5, 1 mM TCEP, 0.069 mM Brij-35, 150 mM NaCl, and 0.1 mg/ml BSA). Streptavidin acceptor beads and nickel donor beads (Perkin Elmer) were added to 15 μg/ml with a Combi Multidrop dispenser. Plates were sealed and incubated at 90 min in the dark at room temperature, and plates were read on an Envision plate reader (Perkin Elmer) according to manufacturer’s instructions. For the BET assays, the protocol was similar except that BET family bromodomains were used at 0.03 μM (BRD4-BD1) and incubated with 0.2 μM H4-TetraAc-biotin for 20 min in reaction buffer (40 mM HEPES pH7.0, 1 mM DTT, 0.069 mM Brij-35, 40 mM NaCl, and 0.1 mg/ml BSA). Streptavidin donor beads and Anti-Flag Acceptor beads (Perkin Elmer) were added to 10 μg/ml, and then plates were sealed and incubated in the dark for 60 min prior to reading on the Envision.

[3] = target: CBP bromodomain (Homo sapiens, UniProt Q92793); test: biochemical; conditions: read-out: DTm
Sequence of CBP bromodomain (Q92793 1085-1192 limits assumed): as above

[4] = tested on: MOLM-13; test: Viability, resazurin, 6 days; type: cell-based; conditions: Homo sapiens, 144 h, MOLM-13, AML
Description: (§1) Cells were plated at 5000–10000 cells per well of 96-well plates containing titrations of the compounds as indicated. After incubation, the cells were incubated with 500 μg/ml resazurin (Sigma) in PBS for 2–8 hr, and fluorescence was measured (Ex 530 nm, Em 590 nm). Cell cycle analysis was performed as described previously ([Mertz et al., 2011]). For visualization, DNA content histograms were generated with GraphPad Prism. Dose-response curves were generated by plotting the normalized percent growth, percent sub-G1 and percent increase in G0/G1 at each dose values. GI50 values were determined as the concentration at which viability was 50% of the DMSO value and calculated by a four-parameter non-linear regression model in GraphPad Prism.

[5] = tested on: SKNO-1; test: Viability, resazurin, 6 days; type: cell-based; conditions: Homo sapiens, 144 h, SKNO-1, AML
Description: as §1

[6] = tested on: KMS28PE; test: Viability, resazurin, 6 days; type: cell-based; conditions: Homo sapiens, KMS-28PE, 144 h, myeloma
Description: as §1

[7] = tested on: HL60; test: Viability, resazurin, 6 days; type: cell-based; conditions: Homo sapiens, HL-60, 144 h, HL60, APL
Description: as §1

[8] = tested on: KMS12BM; test: Viability, resazurin, 6 days; type: cell-based; conditions: Homo sapiens, KMS-12-BM, 144 h, myeloma
Description: as §1

[9] = tested on: Molt-16; test: Viability, resazurin, 6 days; type: cell-based; conditions: Homo sapiens, 144 h, Molt-16, ALL
Description: as §1

[10] = tested on: MOLT4; test: Viability, resazurin, 6 days; type: cell-based; conditions: Homo sapiens, MOLT-4, 144 h, MOLT4, ALL
Description: as §1

[11] = tested on: SEM cells; test: Viability, resazurin, 6 days; type: cell-based; conditions: Homo sapiens, 144 h, ALL
Description: as §1

[12] = tested on: OCI-AML-3; test: Viability, resazurin, 6 days; type: cell-based; conditions: Homo sapiens, 144 h, OCI-AML-3, AML
Description: as §1

[13] = tested on: U266; test: Viability, resazurin, 6 days; type: cell-based; conditions: Homo sapiens, U-266, 144 h, U266, myeloma
Description: as §1

[14] = tested on: NOMO-1; test: Viability, resazurin, 6 days; type: cell-based; conditions: Homo sapiens, 144 h, NOMO-1, AML
Description: as §1

[15] = tested on: OCI-AML-2; test: Viability, resazurin, 6 days; type: cell-based; conditions: Homo sapiens, OCI-AML2, 144 h, OCI-AML-2, AML
Description: as §1

[16] = tested on: Tanoue; test: Viability, resazurin, 6 days; type: cell-based; conditions: Homo sapiens, 144 h, ALL
Description: as §1

[17] = tested on: Jurkat; test: Viability, resazurin, 6 days; type: cell-based; conditions: Homo sapiens, 144 h, ALL
Description: as §1

[18] = tested on: MV411; test: Viability, resazurin, 6 days; type: cell-based; conditions: Homo sapiens, MV4-11, 144 h, MV411, AML
Description: as §1

[19] = tested on: KMS26; test: Viability, resazurin, 6 days; type: cell-based; conditions: Homo sapiens, KMS-26, 144 h, KMS26, myeloma
Description: as §1

[20] = tested on: KMS27; test: Viability, resazurin, 6 days; type: cell-based; conditions: Homo sapiens, KMS-27, 144 h, KMS27, myeloma
Description: as §1

[21] = tested on: KOPN-8; test: Viability, resazurin, 6 days; type: cell-based; conditions: Homo sapiens, 144 h, KOPN-8, ALL
Description: as §1

[22] = tested on: KMS12PE; test: Viability, resazurin, 6 days; type: cell-based; conditions: Homo sapiens, KMS-12-PE, 144 h, myeloma
Description: as §1

[23] = tested on: JJN3; test: Viability, resazurin, 6 days; type: cell-based; conditions: Homo sapiens, JJN-3, 144 h, JJN3, myeloma
Description: as §1

Row | SMILES | IC50 [2] [µM] | GI50 [4] [µM] | GI50 [5] [µM] | GI50 [6] [µM] | GI50 [7] [µM] | GI50 [8] [µM] | GI50 [9] [µM] | GI50 [10] [µM] | GI50 [11] [µM] | GI50 [12] [µM] | GI50 [13] [µM] | GI50 [14] [µM] | GI50 [15] [µM] | GI50 [16] [µM] | GI50 [17] [µM] | GI50 [18] [µM] | GI50 [19] [µM] | GI50 [20] [µM] | GI50 [21] [µM] | GI50 [22] [µM] | also measured
1 | CCC(=O)N1CCOc2c(cc(-c3ccc(OC)c(OC)c3)cc2OC[C@H]2CCCN(C)C2)C1 [I-CBP112] | 8.9 ± 0.06 | 15.7 | 9.5 | > 20 | 4.55 | 2.36 | 17.6 | > 20 | 5.34 | 5.51 | 7.61 | 8.7 | 9.7 | > 20 | > 20 | 13.1 | 2.3 | > 20 | 18.5 | 12.8 | IC50 (μM), CBP BRET (EC50, NanoBRET) [1]: 0.25 ± 0.03 µM; ΔTm at 20 µM [3]: 4.52 °C; GI50 [23]: 11.2 µM
2 | COc1ccc(CCc2nc3cc(-c4c(C)noc4C)ccc3n2C[C@H](C)N2CCOCC2)cc1Cl [SGC-CBP30] | 2.1 ± 0.3 | 6.93 | 4.8 | 17.9 | 4.01 | 1.3 | 7.98 | 7.62 | 2.83 | 3.49 | 2.63 | 7.4 | 3.68 | 8.88 | 12 | 3.33 | 1.34 | 11.8 | 7.23 | 5.34 | GI50 [23]: 2.53 µM
